According to patent US10889611B2, “Sialyltransferase inhibitors and uses thereof” (Academia Sinica, priority 2015, dated 2021):

How the values were obtained:
[1] = target: T1, α2,6(N)-sialyltransferases ST6GALI (Homo sapiens, UniProt P15907); assay: Sialyltransferase inhibition assay, ST6GALI (reverse-phase HPLC); assay type: biochemical; conditions: for IC50: IC50 (μM) ST6GALI, α2,6-N-link
T1 construct: purchased RnDSystems.com (R&D Systems)
T1 sequence (P15907 1-406): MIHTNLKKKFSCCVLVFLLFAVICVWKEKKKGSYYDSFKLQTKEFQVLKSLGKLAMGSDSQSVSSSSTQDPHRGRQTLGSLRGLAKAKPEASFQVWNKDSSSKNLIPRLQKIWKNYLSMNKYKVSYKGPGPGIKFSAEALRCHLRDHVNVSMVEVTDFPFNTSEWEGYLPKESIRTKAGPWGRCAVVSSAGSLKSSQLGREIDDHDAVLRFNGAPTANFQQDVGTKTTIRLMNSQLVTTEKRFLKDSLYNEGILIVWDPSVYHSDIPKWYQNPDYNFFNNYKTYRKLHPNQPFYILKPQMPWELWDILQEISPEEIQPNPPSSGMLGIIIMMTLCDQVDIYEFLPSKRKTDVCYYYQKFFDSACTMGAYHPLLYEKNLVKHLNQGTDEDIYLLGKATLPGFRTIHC
Description: (§1) The enzymes analyzed in the present study included rat ST3Gal(I), rat ST3Gal(III), and human ST6Gal(I). Rat ST3Gal(I) and rat ST3Gal(Ill), were purchased from Calbiochem®, while human ST6Gal(I) was purchased from RnDSystems.com.
(§2) Sialyltransferase inhibition assay (α2,6-N-ST) was performed as follows: Sialyltransferase activity was determined by measuring the level of the end product of sialylated saccharides with reverse-phase HPLC. The assay mixtures contained the following components: 200 mM MES buffer; 100 mM NaCl; 0.5 mM EDTA; 0.01% Triton X-100; 1.4 mU ST6GALI; 25 μM Galβ1-4GlcNAc; 1 mM CMP-Neu5Ac and different concentration of Sialyltransferase inhibitors to a total volume of 50 μl. The assay mixture was incubated at 37° C. for 15 mins and then quenched by heating up to 101° C. for 10 mins. The sialylated product is resolved with reversed-phase HPLC. Kinetic data were obtained by fitting the initial rate data to the nonlinear regression equation.
(§3) Effects of the present compounds on the activity of sialyltransferase, including α2,3(N)-sialyltransferase ST3GALIII, α2,6(N)-sialyltransferases ST6GALI, and α2,3(O)-sialyltransferase ST3GALI, were determined in accordance with procedures described in the “Materials and Methods” section, and results are summarized in Table 1.

[2] = target: T2, α2,3(O)-sialyltransferase ST3GALI (Rattus norvegicus, UniProt Q6H8N0); assay: Sialyltransferase inhibition assay, ST3GALI (reverse-phase HPLC); assay type: biochemical; conditions: measured at 500 μM; read-out: ST3GALI inhibition percentage
T2 construct: purchased Calbiochem
T2 sequence (Q6H8N0 1-340): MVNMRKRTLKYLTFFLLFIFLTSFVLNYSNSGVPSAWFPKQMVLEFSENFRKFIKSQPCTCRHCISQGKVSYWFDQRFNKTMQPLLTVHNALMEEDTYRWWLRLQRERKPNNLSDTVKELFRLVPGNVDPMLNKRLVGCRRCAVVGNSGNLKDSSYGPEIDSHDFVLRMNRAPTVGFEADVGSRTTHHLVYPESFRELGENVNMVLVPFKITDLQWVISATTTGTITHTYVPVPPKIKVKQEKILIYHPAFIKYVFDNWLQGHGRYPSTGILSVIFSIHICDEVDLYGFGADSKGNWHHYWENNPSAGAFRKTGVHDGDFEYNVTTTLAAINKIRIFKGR
Description: as §1
as §2, with “mU ST3GALI; 2.5 mM T-antigen;” for “mU ST6GALI; 25 μM Galβ1-4GlcNAc;”, “to 101′C” for “to 101° C.”, “product was” for “product is”, “resolved by” for “resolved with”
as §3

SMILES	melting point [°C]	other results
C[C@H](CCC(=O)O)C1CCC2C3CC[C@@H]4C[C@H](NS(=O)(=O)c5cccc6c(N(C)C)cccc56)CC[C@]4(C)C3CC[C@@]21C (stereo partly drawn)	136 to 138	–
C[C@H](CCC(=O)OCCOCCN=[N+]=[N-])C1CC[C@H]2[C@@H]3CC[C@@H]4C[C@H](OC(=O)[C@H](CC(=O)O)NC(=O)c5ccc([N+](=O)[O-])cc5)CC[C@]4(C)[C@H]3CC[C@]12C (stereo partly drawn) [Compound 7, (3S)-4-(((3R,5R,8R,9S,10S,13R,14S)-17-((R)-5-(2-(2-azidoethoxy)ethoxy)-5-oxopentan-2-yl)-10,13-dimethylhexadecahydro-1H-cyclopenta[a]phenanthren-3-yl)oxy)-3-(4-nitrobenzamido)-4-oxobutanoic acid]	57 to 58	selectivity ratio ST3GALI/ST6GALI [1]: >74; IC50 [1]: 6.72 ± 0.3 µM; inhibition at 500 µM [2]: 0%
C[C@H](CCC(=O)O)C1CCC2C3CC[C@@H]4C[C@H](NS(=O)(=O)c5cc6ccccc6s5)CC[C@]4(C)C3CC[C@@]21C (stereo partly drawn)	132 to 134	–
C[C@H](CCC(=O)O)C1CCC2C3CC[C@@H]4C[C@H](Nc5ccc6ccccc6n5)CC[C@]4(C)C3CC[C@@]21C (stereo partly drawn)	140 to 142	–
COc1cc2nc(Cl)nc(N[C@@H]3CC[C@]4(C)C5CC[C@@]6(C)C(CCC6[C@H](C)CCC(=O)O)C5CC[C@@H]4C3)c2cc1OC (stereo partly drawn)	178 to 180	–
C[C@H](CCC(=O)O)C1CCC2C3CC[C@@H]4C[C@H](NC(=O)[C@@H](N)CC(=O)O)CC[C@]4(C)C3CC[C@@]21C (stereo partly drawn)	158 to 160	–
C[C@H](CCC(=O)O)C1CCC2C3CC[C@@H]4C[C@H](Nc5ccc([N+](=O)[O-])c6nonc56)CC[C@]4(C)C3CC[C@@]21C (stereo partly drawn)	137 to 139	–
C[C@H](CCC(=O)O)C1CCC2C3CC[C@@H]4C[C@H](Nc5nc6ccccc6nc5Cl)CC[C@]4(C)C3CC[C@@]21C (stereo partly drawn)	118 to 120	–
C[C@H](CCC(=O)O)C1CCC2C3CC[C@@H]4C[C@H](NC5=C(Cl)C(=O)c6ccccc6C5=O)CC[C@]4(C)C3CC[C@@]21C (stereo partly drawn)	120 to 122	–
C[C@H](CCC(=O)O)C1CCC2C3CC[C@@H]4C[C@H](NS(=O)(=O)c5cccc6cccnc56)CC[C@]4(C)C3CC[C@@]21C (stereo partly drawn)	138 to 140	–
C[C@H](CCC(=O)OCCOCCOCCOCCOCCN=[N+]=[N-])C1CC[C@H]2[C@@H]3CC[C@@H]4C[C@H](OC(=O)[C@H](CC(=O)O)NC(=O)c5ccc([N+](=O)[O-])cc5)CC[C@]4(C)[C@H]3CC[C@]12C (stereo partly drawn) [Compound 10, (3S)-4-(((3R,5R,8R,9S,10S,13R,14S)-17-((R)-1-azido-16-oxo-3,6,9,12,15-pentaoxaicosan-19-yl)-10,13-dimethylhexadecahydro-1H-cyclopenta[a]phenanthren-3-yl)oxy)-3-(4-nitrobenzamido)-4-oxobutanoic acid]	–	selectivity ratio ST3GALI/ST6GALI [1]: >67; IC50 [1]: 7.45 ± 0.36 µM; inhibition at 500 µM [2]: 0%
C[C@H](CCC(=O)O)C1CCC2C3CC[C@@H]4C[C@H](NS(=O)(=O)c5c(Cl)ccc6nonc56)CC[C@]4(C)C3CC[C@@]21C (stereo partly drawn)	128 to 130	–
C[C@H](CCC(=O)OCCOCCN=[N+]=[N-])C1CC[C@H]2[C@@H]3CC[C@@H]4C[C@H](OC(=O)[C@H](CC(=O)O)Nc5ccc([N+](=O)[O-])c6nonc56)CC[C@]4(C)[C@H]3CC[C@]12C (stereo partly drawn) [Compound 2, (3S)-4-(((3R,5R,8R,9S,10S,13R,14S)-17-((R)-5-(2-(2-azidoethoxy)ethoxy)-5-oxopentan-2-yl)-10,13-dimethylhexadecahydro-1H-cyclopenta[a]phenanthren-3-yl)oxy)-3-((7-nitrobenzo[c][1,2,5]oxadiazol-4-yl)amino)-4-oxobutanoic acid]	75 to 76	IC50 [1]: 3 to 7 µM
C[C@H](CCC(=O)OCCOCCOCCOCCN=[N+]=[N-])C1CC[C@H]2[C@@H]3CC[C@@H]4C[C@H](OC(=O)[C@H](CC(=O)O)NC(=O)c5ccc([N+](=O)[O-])cc5)CC[C@]4(C)[C@H]3CC[C@]12C (stereo partly drawn) [Compound 9, (3S)-4-(((3R,5R,8R,9S,10S,13R,14S)-17-((R)-1-azido-13-oxo-3,6,9,12-tetraoxaheptadecan-16-yl)-10,13-dimethylhexadecahydro-1H-cyclopenta[a]phenanthren-3-yl)oxy)-3-(4-nitrobenzamido)-4-oxobutanoic acid]	–	selectivity ratio ST3GALI/ST6GALI [1]: >88; IC50 [1]: 5.7 ± 0.36 µM; inhibition at 500 µM [2]: 0%

Now from value to compound, other results behind:

melting point [°C]	SMILES	other results
68 to 69	C[C@H](CCC(=O)OCCOCCOCCN=[N+]=[N-])C1CCC2C3CC[C@@H]4C[C@H](NC(=O)[C@H](CS)Nc5ccc([N+](=O)[O-])c6nonc56)CC[C@]4(C)C3CC[C@@]21C (stereo partly drawn)	–
72 to 73	C[C@H](CCC(=O)OCCOCCOCCN=[N+]=[N-])C1CCC2C3CC[C@@H]4C[C@H](NC(=O)[C@H](Cc5ccc(O)cc5)Nc5ccc([N+](=O)[O-])c6nonc56)CC[C@]4(C)C3CC[C@@]21C (stereo partly drawn)	–
64 to 65	C[C@H](CCC(=O)OCCOCCOCCN=[N+]=[N-])C1CCC2C3CC[C@@H]4C[C@H](NC(=O)[C@H](CSC(C)(C)C)Nc5ccc([N+](=O)[O-])c6nonc56)CC[C@]4(C)C3CC[C@@]21C (stereo partly drawn)	–
65 to 66	C[C@H](CCC(=O)OCCOCCOCCN=[N+]=[N-])C1CCC2C3CC[C@@H]4C[C@H](NC(=O)[C@H](Cc5ccccc5)Nc5ccc([N+](=O)[O-])c6nonc56)CC[C@]4(C)C3CC[C@@]21C (stereo partly drawn)	–
86 to 87	C[C@H](CCC(=O)OCCOCCOCCN=[N+]=[N-])C1CCC2C3CC[C@@H]4C[C@H](NC(=O)[C@H](Cc5c[nH]c6ccccc56)Nc5ccc([N+](=O)[O-])c6nonc56)CC[C@]4(C)C3CC[C@@]21C (stereo partly drawn)	–
78 to 79	C[C@H](CCC(=O)OCCOCCOCCN=[N+]=[N-])C1CCC2C3CC[C@@H]4C[C@H](NC(=O)[C@H](CCCNC(=N)N)Nc5ccc([N+](=O)[O-])c6nonc56)CC[C@]4(C)C3CC[C@@]21C (stereo partly drawn)	–
69 to 70	C[C@H](Nc1ccc([N+](=O)[O-])c2nonc12)C(=O)N[C@@H]1CC[C@]2(C)C3CC[C@@]4(C)C(CCC4[C@H](C)CCC(=O)OCCOCCOCCN=[N+]=[N-])C3CC[C@@H]2C1 (stereo partly drawn)	–
77 to 78	C[C@H](CCC(=O)OCCOCCOCCN=[N+]=[N-])C1CCC2C3CC[C@@H]4C[C@H](NC(=O)[C@H](CCC(=O)O)Nc5ccc([N+](=O)[O-])c6nonc56)CC[C@]4(C)C3CC[C@@]21C (stereo partly drawn)	–
62 to 64	C[C@H](CCC(=O)OCCOCCOCCN=[N+]=[N-])C1CCC2C3CC[C@@H]4C[C@H](NC(=O)C5CCCN5c5ccc([N+](=O)[O-])c6nonc56)CC[C@]4(C)C3CC[C@@]21C (stereo partly drawn)	–
134 to 136	C[C@H](CCC(=O)O)C1CCC2C3CC[C@@H]4C[C@H](NC(=O)[C@H](CC(=O)O)Nc5ccc([N+](=O)[O-])c6nonc56)CC[C@]4(C)C3CC[C@@]21C (stereo partly drawn)	–
84 to 85	C[C@H](CCC(=O)OCCOCCOCCN=[N+]=[N-])C1CCC2C3CC[C@@H]4C[C@H](NC(=O)[C@H](CCCCN)Nc5ccc([N+](=O)[O-])c6nonc56)CC[C@]4(C)C3CC[C@@]21C (stereo partly drawn)	–
